Laboratory results published in patent publication US5919756A, “Amides” (Eli Lilly and Company, priority 1997, dated 1999).
≈ marks a conversion by molar mass, not a printed value.

Legend:
Type in all cases: cell-based
[1] = system: Enterococcus, Resistant (4-6 isolates); assay: Enterococcus screen, broth micro-dilution MIC, resistant isolates; parameters: unit not given here; details: mean of 4-6 isolates
Procedure: (§1) The antibacterial efficacy of the present compounds is illustrated in TABLE 2. The minimal inhibitory concentrations (MICs) were determined using a standard broth micro-dilution assay.

[2] = system: Enterococcus, Sensitive (4-6 isolates); assay: Enterococcus screen, broth micro-dilution MIC, sensitive isolates; parameters: unit not given here; details: mean of 4-6 isolates
Procedure: as §1

[3] = system: Staphylococcus aureus 446; assay: Broth micro-dilution MIC, SA 446; details: unit assumed
Procedure: as §1

[4] = system: Staphylococcus aureus 489; assay: Broth micro-dilution MIC, SA 489; details: unit assumed
Procedure: as §1

[5] = system: Staphylococcus aureus 447; assay: Broth micro-dilution MIC, SA 447; details: unit assumed
Procedure: as §1

[6] = system: Staphylococcus haemolyticus 105; assay: Broth micro-dilution MIC, SH 105; details: unit assumed
Procedure: as §1

[7] = system: Staphylococcus haemolyticus 415; assay: Broth micro-dilution MIC, SH 415; details: unit assumed
Procedure: as §1

[8] = system: Staphylococcus epidermis 270; assay: Broth micro-dilution MIC, SE 270; details: unit assumed
Procedure: as §1

[9] = system: Streptococcus pneumoniae P1; assay: Broth micro-dilution MIC, S PN P1; details: unit assumed
Procedure: as §1

[10] = system: Streptococcus pyogenes 203; assay: Broth micro-dilution MIC, S PY 203; details: unit assumed
Procedure: as §1

Compound | Minimum Inhibitory Concentrations (MICs), Mean Values of 4-6 Isolates, Resistant [1] | Minimum Inhibitory Concentrations (MICs), Mean Values of 4-6 Isolates, Sensitive [2] | MIC, SA 446 [3] [µg/mL] | MIC, SA 489 [4] [µg/mL] | MIC, SA 447 [5] [µg/mL] | MIC, SH105 [6] [µg/mL] | MIC, SH415 [7] [µg/mL] | MIC, SE270 [8] [µg/mL] | MIC, S PN P1 [9] [µg/mL] | MIC, S PY 203 [10] [µg/mL]
CNC(CC(C)C)C(=O)NC1C(=O)NC(CC(N)=O)C(=O)NC2C(=O)NC3C(=O)NC(C(=O)NC(C(=O)NCc4ccc(OC)cc4)c4cc(O)cc(O)c4-c4cc3ccc4O)C(OC3CC(C)(N)C(O)C(C)O3)c3ccc(c(Cl)c3)Oc3cc2cc(c3OC2OC(CO)C(O)C(O)C2OC2CC(C)(NCc3ccc(-c4ccccc4)cc3)C(O)C(C)O2)Oc2ccc(cc2Cl)C1O.O=C(O)C(F)(F)F (stereo not drawn) [Example 12, N^4-(4-phenylbenzyl)A82846B, (4-methoxybenzyl) amide, trifluoroacetate salt] | 1.7 | 0.13 | 2 | 0.5 | 1 | 1 | 4 | 2 | ≤ 0.06 | ≤ 0.06
N^4 -(4-phenylbenzyl)A82846B, (4-cyclohexylphenyl) amide, trifluoroacetate salt [Example 8] | 6.7 | 0.33 | 2 | 4 | 2 | 4 | 4 | 2 | ≤ 0.06 | ≤ 0.06
CNC(CC(C)C)C(=O)NC1C(=O)NC(CC(N)=O)C(=O)NC2C(=O)NC3C(=O)NC(C(=O)NC(C(=O)NCCC(c4ccccc4)c4ccccc4)c4cc(O)cc(O)c4-c4cc3ccc4O)C(OC3CC(C)(N)C(O)C(C)O3)c3ccc(c(Cl)c3)Oc3cc2cc(c3OC2OC(CO)C(O)C(O)C2OC2CC(C)(NCc3ccc(-c4ccccc4)cc3)C(O)C(C)O2)Oc2ccc(cc2Cl)C1O (stereo not drawn) [Example 22, N^4-(4-phenylbenzyl)A82846B, (3,3-diphenyl-n-propyl) amide] | 1.68 | 0.87 | 32 (≈ 16.4 µM) | 32 (≈ 16.4 µM) | 32 (≈ 16.4 µM) | 8 (≈ 4.1 µM) | 8 (≈ 4.1 µM) | 16 (≈ 8.2 µM) | 0.125 (≈ 0.064 µM) | 0.125 (≈ 0.064 µM)
N^4 -(4-phenylbenzyl)A82846B, tert-butylamide, trifluoroacetate salt [Example 4] | 2 | 0.082 | 2 |  | 0.5 | 1 | 2 | 0.125 | ≤ 0.06 | ≤ 0.06
N^4 -(4-phenoxybenzyl)A82846B, tert-butylamide, trifluoroacetate salt [Example 5] | 4 | 0.22 | 8 | 2 | 2 | 4 | 2 | 4 |  | ≤ 0.06
CCCCc1ccc(CNC2(C)CC(OC3C(Oc4c5cc6cc4Oc4ccc(cc4Cl)C(OC4CC(C)(N)C(O)C(C)O4)C4NC(=O)C(NC(=O)C6NC(=O)C(CC(N)=O)NC(=O)C(NC(=O)C(CC(C)C)NC)C(O)c6ccc(c(Cl)c6)O5)c5ccc(O)c(c5)-c5c(O)cc(O)cc5C(C(=O)NCCc5ccccc5)NC4=O)OC(CO)C(O)C3O)OC(C)C2O)cc1.O=C(O)C(F)(F)F (stereo not drawn) [Example 15, N^4-(4-n-butylbenzyl)A82846B, phenethylamide, trifluoroacetate salt] | 1.7 | 0.22 | 2 | 2 | 2 | 1 | 2 | 2 | ≤ 0.06 | ≤ 0.06
CNC(CC(C)C)C(=O)NC1C(=O)NC(CC(N)=O)C(=O)NC2C(=O)NC3C(=O)NC(C(=O)NC(C(=O)NCCCN(C)C)c4cc(O)cc(O)c4-c4cc3ccc4O)C(OC3CC(C)(N)C(O)C(C)O3)c3ccc(c(Cl)c3)Oc3cc2cc(c3OC2OC(CO)C(O)C(O)C2OC2CC(C)(NCc3ccc(-c4ccccc4)cc3)C(O)C(C)O2)Oc2ccc(cc2Cl)C1O (stereo not drawn) [Example 21, N^4-(4-phenylbenzyl)A82846B, (3-(dimethylamino)-n-propyl) amide] | 1.2 | 0.054 | 4 (≈ 2.17 µM) | 2 (≈ 1.09 µM) | 2 (≈ 1.09 µM) | 0.5 (≈ 0.271 µM) | 2 (≈ 1.09 µM) | 0.5 (≈ 0.271 µM) | ≤ 0.06 | ≤ 0.06
CNC(CC(C)C)C(=O)NC1C(=O)NC(CC(N)=O)C(=O)NC2C(=O)NC3C(=O)NC(C(=O)NC(C(=O)NCCc4ccccc4)c4cc(O)cc(O)c4-c4cc3ccc4O)C(OC3CC(C)(N)C(O)C(C)O3)c3ccc(c(Cl)c3)Oc3cc2cc(c3OC2OC(CO)C(O)C(O)C2OC2CC(C)(N)C(O)C(C)O2)Oc2ccc(cc2Cl)C1O.O=C(O)C(F)(F)F (stereo not drawn) [Example 16, A82846B, phenethylamide, trifluoroacetate salt] | 16 | 0.25 | 0.125 | ≤ 0.06 | ≤ 0.06 | ≤ 0.06 | 0.125 | ≤ 0.06 | ≤ 0.06 | 
N^4 -(4-phenoxybenzyl)A82846B, phenethylamide, trifluoroacetate salt [Example 14] | 2 | 0.01 | 2 | 1 | 2 | 0.5 | 2 | 1 | ≤ 0.06 | ≤ 0.06
CNC(CC(C)C)C(=O)NC1C(=O)NC(CC(N)=O)C(=O)NC2C(=O)NC3C(=O)NC(C(=O)NC(C(=O)NCCCN(C)C)c4cc(O)cc(O)c4-c4cc3ccc4O)C(OC3CC(C)(N)C(O)C(C)O3)c3ccc(c(Cl)c3)Oc3cc2cc(c3OC2OC(CO)C(O)C(O)C2OC2CC(C)(N)C(O)C(C)O2)Oc2ccc(cc2Cl)C1O.O=C(O)C(F)(F)F (stereo not drawn) [Example 23, A82846B, (3-(dimethylamino)-n-propyl)amide, trifluoroacetate salt] | > 128 | 0.44 | 0.125 | ≤ 0.06 | 0.125 | ≤ 0.06 | ≤ 0.06 | ≤ 0.06 | ≤ 0.06 | ≤ 0.06
N^4 -(4-(4-CHLOROPHENYL)BENZYL)A82846B, 5-AMINOPENTYLAMIDE, TETRA(TRIFLUOROACETATE) SALT [Example 26] | 1.7 | 0.44 |  | 2 | 1 | 0.5 | 2 | 1 | 0.25 | 0.25
CNC(CC(C)C)C(=O)NC1C(=O)NC(CC(N)=O)C(=O)NC2C(=O)NC3C(=O)NC(C(=O)NC(C(=O)NCCCOC)c4cc(O)cc(O)c4-c4cc3ccc4O)C(OC3CC(C)(N)C(O)C(C)O3)c3ccc(c(Cl)c3)Oc3cc2cc(c3OC2OC(CO)C(O)C(O)C2OC2CC(C)(NCc3ccc(-c4ccccc4)cc3)C(O)C(C)O2)Oc2ccc(cc2Cl)C1O (stereo not drawn) [Example 13, N^4-(4-phenylbenzyl)A82846B, (3-methoxypropyl)amide] | 1.4 | 0.072 | 1 (≈ 0.547 µM) | 1 (≈ 0.547 µM) | 1 (≈ 0.547 µM) | 2 (≈ 1.09 µM) | 0.5 (≈ 0.273 µM) | 1 (≈ 0.547 µM) | ≤ 0.06 | ≤ 0.06
N^4 -(4-(4-CHLOROPHENYL)BENZYL)A82846B, 5-(TERT-BUTOXYCARBONYLAMINO)PENTYLAMIDE, TRIS(TRIFLUOROACETATE) SALT [Example 25] | 2.8 | 5.0 |  |  |  |  |  |  |  | 
CNC(CC(C)C)C(=O)NC1C(=O)NC(CC(N)=O)C(=O)NC2C(=O)NC3C(=O)NC(C(=O)NC(C(=O)NCCc4ccccc4)c4cc(O)cc(O)c4-c4cc3ccc4O)C(OC3CC(C)(N)C(O)C(C)O3)c3ccc(c(Cl)c3)Oc3cc2cc(c3OC2OC(CO)C(O)C(O)C2OC2CC(C)(NCc3ccc(-c4ccccc4)cc3)C(O)C(C)O2)Oc2ccc(cc2Cl)C1O (stereo not drawn) [Example 17, N^4-(4-phenylbenzyl)A82846B, phenethylamide] | 1.4 | 0.25 |  |  |  |  |  |  |  | 
N^4 -(4-phenoxybenzyl)A82846B, n-octylamide, trifluoroacetate salt [Example 6] | 1.7 | 0.44 | 4 | 2 | 1 | 1 | 4 | 1 |  | ≤ 0.06
